Literature values, collected in patent US20060205656A1 (priority 1999, published 2006).

Conditions: in vivo

Substance: contulakin-G
- potency in inhibiting pain relative to neurotensin: significantly more potent than neurotensin
